“Also recorded” adds a separate entry of the source.
How the values were obtained:
antibodies to SIV/HIV-2 = test: EIA of peptide-protein conjugates coated on polystyrene microtiter plates, macaque sera; format: binding, rhesus macaque (Macaca mulatta)
Excerpt: For all of the immunoassays employing human serum, the serum samples were obtained from the King County Health Department, Seattle, Wash., U.S.A., and each serum had been characterized as positive or negative with respect to antibodies to HIV-1, as determined by testing with the commercially licensed Genetic Systems and or DuPont EIA tests. Serum from rhesus macaque monkeys (Macaca mulatta) was obtained from the University of Washington, Seattle, Wash., U.S.A., and had been characterized by a SIV whole virus lysate EIA as either containing or not containing antibodies to SIV which is nearly identical in sequence to HIV-2 in the region of the peptide epitopes studied.
(§1) The free peptides or peptide-protein conjugates of FIGS. 1-13 were initially screened for immunoreactivity by coating each well of polystyrene microtiter EIA plates (Costar, Cambridge, Mass., U.S.A.) with 0.2 ml amounts of concentrations of 5-50 micrograms/ml peptide in Tris buffer, 10 mM, pH 8.0, at 4° C. overnight. Peptides or peptide-protein conjugates showing immunoreactivity by EIA were then further diluted for coating to determine the minimal concentrations required that allowed maximal immunoreactivity with antibodies to HIV, and minimal nonspecific reactivity with normal sera. The EIA tests were performed as follows: The coating solution was removed from each well and the wells were blocked at 37° C. for 30 minutes with a solution of 50 mM phosphate, 100 mM NaCl, pH 7.4, 1% BSA, 0.5% gelatin. The wells were then aspirated dry with a microtiter plate washer and washed 3 times with a solution of 50 mM phosphate, 100 mM NaCl, 0.05% Tween 20, pH 7.4 (PBST). A 1:101 dilution (in PBST with 1% BSA, 1% NRS) of the primate serum to be tested was then added as 0.2 ml to each washed well and the plates were incubated at 37° C. for 30 minutes. The plates were then washed×3 with PBST, and 0.2 ml amounts of a 1:2000 dilution of goat anti-human (GAH) peroxidase enzyme conjugate (Organon Teknika, Cappel, Melvern, Pa., U.S.A.) that recognized human IgG, IgA, and IgM were added to each well, and the plates were incubated for 30 minutes at 37° C. The plates were then washed×3 with PBST and incubated with 0.2 ml/well substrate consisting of 0.1M citric acid pH 5.2, 0.1 mg/ml o-phenylene diamine, 0.01% H2 O2, at room temperature in the dark for 10 minutes. Reactions were stopped with 50 microliters of 4N H2 SO4, and the color development was quantitated in a Multiscan plate reader at A492. In each series of experiments positive and negative controls were included, and all tests were done in duplicate or quadruplicate. Most peptides and peptide conjugates were initially screened against a 1:101 dilution of pools of HIV positive or HIV negative sera, and the same serum pool was used to allow quantitative comparison of immunoreactivity of different free peptides or peptide-protein conjugates.
(§2) The peptides in FIGS. 1 and 5 were synthesized as described in Example 1 and conjugated to KLH or BSA as described in Example 2. These peptide-protein conjugates were coated to polystyrene microtiter plates all at a concentration 10 micrograms peptide/ml and evaluated for immunoreactivity as described in Example 3, using a 1:101 dilution of a pool of sera (HIV+/SIV+, respectively) containing antibodies to HIV-1 (FIG. 1) or to HIV-2 (FIG. 5), as well as pooled serum (HIV-/SIV-, respectively) containing no antibodies to HIV-1 or HIV-2. […] Since sera from patients infected with HIV-2 are relatively unavailable in the United States, the immunoreactivity of HIV-2 synthetic peptides was assessed using serum from macaques infected with SIV, obtained from the University of Washington Primate Center, Seattle, Wash., U.S.A. The AA sequence of SIV is nearly identical to HIV-2 in the region of the peptides synthesized (see Myers et al., Human Retroviruses and AIDS, 1988. A compilation of nucleic acid and amino acid sequences. Los Alamos National Laboratory, Los Alamos, N. Mex., 87545, USA).

antibodies to HIV-2 = test: Rapid EIA with latex reagents to detect antibodies to HIV-2; format: binding
Experimental: A 125 microliter volume of 10% latex was added to a 375 microliter volume of deionized water, and mixed with an equal volume (0.5 ml) of 1M carbodiimide, pH 4.5. The mixture was shaken gently a room temperature for 1 hour, and then washed 3 times by centrifugation at 9,000×g for 10 minutes, removal of supernate, and resuspension of the pellet in a 12-14 ml volume of deionized water, pH 4.5. The free peptides at 1 mg/ml concentration (500 micrograms/ml of each peptide 4S36 and 5S70), or the peptide-BSA conjugate of peptides 4S36 and 5S70 at 500 micrograms/ml were added to the final washed activated latex pellet (1 ml volume of peptide containing solution per 125 microliters original volume of latex). […] It was determined that this stock solution of latex coated with peptide-BSA conjugate could be diluted 1:10-1:30 with latex diluent buffer for use in the rapid EIA described below.
Serum specimens were diluted 1:8 for the rapid EIA in a serum diluent buffer consisting of 0.03M Tris, pH 8 containing 0.8% NaCl, 0.05% NaN3, 0.05% Triton x-100. […] The reaction was stopped after 3-4 minutes by adding a drop of 4N H2 SO4, and the test device could be retained as a permanent record of positive (blue-purple color) or negative (white membrane) until the results were recorded. […]

antibodies to HIV-1 [1] = test: EIA of peptide-protein conjugates coated on polystyrene microtiter plates, human sera; format: binding
Experimental: as §1, §2

antibodies to HIV-1 [2] = test: Rapid HIV-1 EIA with peptide reagents immobilized on latex in rapid test device; format: binding, human; conditions: passive adsorption
Experimental: A test device for performing rapid tests in less than 15 minutes was prepared as illustrated in FIGS. 14 and 15. Referring to FIGS. 14 and 15, the device comprises a plastic slide 10 (approximately 1 inch wide by 3/16 inch thick by 31/4 inches long) having a plurality of funnel-like wells 12, each having a capacity of approximately 200 microliters, an upper inflow tract rim 14 diameter of approximately 9 mm and a lower outflow tract 16 diameter of approximately 2 mm. The undersurface of the outflow tract 16 is designed so as to provide a smooth even contact with a membrane filter 18 placed next to it in the apparatus. The membrane filter separates reactants passing through it by size, retaining those particles above a predetermined size, such as above 0.22 microns, or above 0.45 microns in size (depending upon the specific filter chosen), through other filters placed into the apparatus might separate by binding or affinity (i.e. nitrocellulose, glass). […]
The mixture was shaken gently a room temperature for 1 hour, and then washed 3 times by centrifugation at 9,000×g for 10 minutes, removal of supernate, and resuspension of the pellet in a 12-14 ml volume of deionized water, pH 4.5. […] It was determined that this stock solution of latex coated with peptide-BSA conjugate could be diluted 1:10-1:30 with latex diluent buffer for use in the rapid EIA described below. […]

| Sequence | immunoreactivity with SIV/HIV-2 antibodies (FIG. 5) (antibodies to SIV/HIV-2; C-terminal BSA-SMCC conjugates, 10 micrograms peptide/ml coating, 1:101 dilution of pooled SIV+ / SIV- macaque sera) | discrimination of positive from negative macaque sera (FIG. 7) (antibodies to SIV/HIV-2; peptide-BSA conjugates) | discrimination of HIV-2+ from HIV-2- serum samples, rapid EIA (antibodies to HIV-2) | reactivity with sera not containing antibodies to HIV-1 (FIGS. 10C, 11) (antibodies to HIV-1 [1]; BSA-SMCC conjugate, 85-87 negative human sera) | number of positive samples giving A492 less than 1.0 (antibodies to HIV-1 [1]; BSA-SMCC conjugate, 98 positive human sera (FIGS. 11A, 11B)) | positive/negative ratios (FIG. 9) (antibodies to HIV-1 [1]; BSA-peptide conjugate, polystyrene plastic type 1 (low reactivity with normal human sera)) | performance of free peptide passively adsorbed to latex (antibodies to HIV-1 [2]) |
| --- | --- | --- | --- | --- | --- | --- | --- |
| ARLNSWGCAFRQVCHGC [2S25] | Significant immunoreactivity; also recorded: best immunoreactivity; also recorded: maximally immunoreactive | most favorable performances | capable of discriminating |  |  |  |  |
| VWGCSGKLICTTAVPGC [4S36, unnatural variant of HIV-1 gp41 peptide 2S09] |  |  |  | acceptably low | none | ≥ 20 | produced an immunoreactive reagent |

Source: patent US5260189A, “Synthetic HIV-like peptides their compositions and uses” (Immunodiagnostics, Inc., priority 1992, dated 1993)
